The record followed here is ChEMBL document CHEMBL3856199, “Melanoma-targeted delivery system (part 2): Synthesis, radioiodination and biological evaluation in B16F0 bearing mice” (Eur J Med Chem, 2016).

Data set [1] can be described thus: Drug uptake in tumor of C57BL/6J mouse implanted with mouse B16F0 cells at 3.7 MBq, iv measured at 24 hrs post injection by gamma counting analysis. The format is ADME, organism-based, Neoplasm. As to conditions: in vivo.
Data set [2] can be described thus: Drug uptake in liver of C57BL/6J mouse implanted with mouse B16F0 cells at 3.7 MBq, iv measured at 3 hrs post injection by gamma counting analysis. The format is ADME, organism-based. As to conditions: in vivo.
A short description of data set [3]: Drug uptake in liver of C57BL/6J mouse implanted with mouse B16F0 cells at 3.7 MBq, iv measured at 24 hrs post injection by gamma counting analysis. As to conditions: in vivo. Type of data set: ADME, organism-based.
Data set [4] is described as follows: Drug uptake in kidney of C57BL/6J mouse implanted with mouse B16F0 cells at 3.7 MBq, iv measured at 6 hrs post injection by gamma counting analysis. Type of data set: ADME, organism-based. As to conditions: in vivo.
A short description of data set [5]: Drug uptake in kidney of C57BL/6J mouse implanted with mouse B16F0 cells at 3.7 MBq, iv measured at 24 hrs post injection by gamma counting analysis. Type of data set: ADME, organism-based. As to conditions: in vivo.
Data set [6] is described as follows: Drug uptake in stomach of C57BL/6J mouse implanted with mouse B16F0 cells at 3.7 MBq, iv measured at 1 hr post injection by gamma counting analysis. Type of data set: ADME, organism-based. The conditions noted are these: in vivo.
The nature of data set [7]: Drug uptake in stomach of C57BL/6J mouse implanted with mouse B16F0 cells at 3.7 MBq, iv measured at 24 hrs post injection by gamma counting analysis. The conditions noted are these: in vivo. The format is ADME, organism-based.
Data set [8] is described as follows: Drug uptake in stomach of C57BL/6J mouse implanted with mouse B16F0 cells at 3.7 MBq, iv measured at 72 hrs post injection by gamma counting analysis. The format is ADME, organism-based. The conditions noted are these: in vivo.
Data set [9] can be described thus: Drug uptake in intestine of C57BL/6J mouse implanted with mouse B16F0 cells at 3.7 MBq, iv measured at 24 hrs post injection by gamma counting analysis. Type of data set: ADME, organism-based. The conditions noted are these: in vivo.
Data set [10] is described as follows: Drug uptake in thyroid/submaxillary glands of C57BL/6J mouse implanted with mouse B16F0 cells at 3.7 MBq, iv measured at 3 hrs post injection by gamma counting analysis. As to conditions: in vivo. Type of data set: ADME, organism-based, Submaxillary gland/Thyroid.
Data set [11] is described as follows: Drug uptake in thyroid/submaxillary glands of C57BL/6J mouse implanted with mouse B16F0 cells at 3.7 MBq, iv measured at 6 hrs post injection by gamma counting analysis. The conditions noted are these: in vivo. Type of data set: ADME, organism-based, Submaxillary gland/Thyroid.
The nature of data set [12]: Drug uptake in eyes of C57BL/6J mouse implanted with mouse B16F0 cells at 3.7 MBq, iv measured at 1 hr post injection by gamma counting analysis. The format is ADME, organism-based, Eye. As to conditions: in vivo.
Data set [13] is described as follows: Drug uptake in eyes of C57BL/6J mouse implanted with mouse B16F0 cells at 3.7 MBq, iv measured at 6 hrs post injection by gamma counting analysis. Type of data set: ADME, organism-based, Eye. As to conditions: in vivo.
Data set [14] in a line: Drug uptake in blood of C57BL/6J mouse implanted with mouse B16F0 cells at 3.7 MBq, iv measured at 72 hrs post injection by gamma counting analysis. The format is ADME, organism-based. The conditions noted are these: in vivo.
A further data set has as its system Mus musculus. Put plainly: Toxicity in C57BL/6J mouse assessed as lethargy at 3.7 MBq, iv measured up to 72 hrs post injection. The format is organism-based. As to conditions: in vivo.
Data set [15] can be described thus: Ratio of drug uptake in tumor to blood in C57BL/6J mouse implanted with mouse B16F0 cells at 3.7 MBq, iv measured at 1 hr post injection. The format is ADME, organism-based.
Data set [16] can be described thus: Ratio of drug uptake in tumor to blood in C57BL/6J mouse implanted with mouse B16F0 cells at 3.7 MBq, iv measured at 3 hrs post injection. Type of data set: ADME, organism-based.
A short description of data set [17]: Ratio of drug uptake in tumor to blood in C57BL/6J mouse implanted with mouse B16F0 cells at 3.7 MBq, iv measured at 24 hrs post injection. Type of data set: ADME, organism-based.
Data set [18] in a line: Ratio of drug uptake in tumor to muscle in C57BL/6J mouse implanted with mouse B16F0 cells at 3.7 MBq, iv measured at 1 hr post injection. The format is ADME, organism-based. The conditions noted are these: in vivo.
A short description of data set [19]: Ratio of drug uptake in tumor to muscle in C57BL/6J mouse implanted with mouse B16F0 cells at 3.7 MBq, iv measured at 6 hrs post injection. Type of data set: ADME, organism-based. As to conditions: in vivo.
Data set [20] in a line: Ratio of drug uptake in tumor to muscle in C57BL/6J mouse implanted with mouse B16F0 cells at 3.7 MBq, iv measured at 24 hrs post injection. The format is ADME, organism-based. As to conditions: in vivo.
The nature of data set [21]: Ratio of drug uptake in tumor to muscle in C57BL/6J mouse implanted with mouse B16F0 cells at 3.7 MBq, iv measured at 72 hrs post injection. The format is ADME, organism-based. The conditions noted are these: in vivo.
The nature of data set [22]: Drug level in urine of C57BL/6J mouse implanted with mouse B16F0 cells treated with [125I]IUdR-SS-MTP at 3.7 MBq, iv measured at 15 to 60 mins post injection by RP-HPLC analysis. Type of data set: ADME, organism-based. The conditions noted are these: in vivo.
Data set [23] is described as follows: Drug level in blood of C57BL/6J mouse implanted with mouse B16F0 cells treated with [125I]IUdR-SS-MTP at 3.7 MBq, iv measured at 15 to 60 mins post injection by RP-HPLC analysis. The format is ADME, organism-based. The conditions noted are these: in vivo.
A short description of data set [24]: Drug level in tumor of C57BL/6J mouse implanted with mouse B16F0 cells treated with [125I]IUdR-SS-MTP at 3.7 MBq, iv measured at 15 to 60 mins post injection by RP-HPLC analysis. As to conditions: in vivo. The format is ADME, organism-based, Neoplasm.

For orientation: Kp means tissue or fluid exposure divided by exposure in the circulation.

Molecules are shown by their SMILES.

Turning to `CCN(CC)CCNC(=O)c1cnc2cc(NC(=O)COc3ccc(SSCCOC(=O)O[C@H]4C[C@H](n5cc([125I])c(=O)[nH]c5=O)O[C@@H]4CO)cc3)ccc2n1`, the Drug uptake is 0.72 % ID/g in data set [1]; 1.23 % ID/g in data set [2]; 0.13 % ID/g in [3]; 0.87 % ID/g in data set [4]; 0.2 % ID/g in [5]; 19.21 % ID/g in data set [6]. For the same molecule, the Drug uptake was determined as 1.01 % ID/g in data set [7]; 0.23 % ID/g in data set [8]; 0.4 % ID/g in data set [9]; 20.47 % ID/g in [10]; 26.6 % ID/g in data set [11]; 0.78 % ID/g in [12]. Moreover, the Drug uptake in data set [13] is recorded as 0.28 % ID/g; in data set [14], 1.94 % ID/g. Further, the Activity result in the data set on Mus musculus is “Non-Toxic”. The concentration ratio (Kp) at 1 h in data set [15] came out at 1.11. Also, the concentration ratio (Kp) at 3 h in data set [16] is 1.07. The concentration ratio (Kp) at 24 h in data set [17] was 5.63. Also, the Ratio in [18] worked out at 4.84; in [19], 12.3; in data set [20], 18.24; in data set [21] it was 5.28.

In the case of `O=c1[nH]c(=O)n([C@H]2C[C@H](O)[C@@H](CO)O2)cc1[125I]`, the Drug uptake in data set [1] came to 0.46 % ID/g; in [2], 0.63 % ID/g; in data set [3], 0.08 % ID/g; in data set [4], 0.38 % ID/g; in data set [5], 0.12 % ID/g; in [6], 18.09 % ID/g. Besides, the Drug uptake is 0.62 % ID/g in data set [7]; 0.2 % ID/g in data set [8]; 0.34 % ID/g in [9]; 14.55 % ID/g in [10]; 14.26 % ID/g in data set [11]; 1.02 % ID/g in data set [12]. The Drug uptake is 0.24 % ID/g in data set [13] and 0.02 % ID/g in [14]. For the same molecule, the Activity entry in the data set with Mus musculus is on record as “Non-Toxic”. Besides, in data set [15], the Kp at 1 h is 0.89. Moreover, in [16], the concentration ratio (Kp) at 3 h came out at 1.14. The Kp at 24 h in [17] is 7.24. The Ratio in data set [18] is on record as 2.96; in data set [19] it was 10.66; in data set [20] it was 24.35; in [21], 14.58. Besides, the Drug metabolism entry in [22], in [23] and in data set [24] was “Metabolite_Detected” throughout.
